Source: US11708562B2, “Differentiation of human embryonic stem cells” (Janssen Biotech, Inc., priority 2006, dated 2023)

System: human embryonic stem cell line H9
Assay: Formation of pancreatic endocrine cells expressing Nkx2.2 (PCR)
Type: cell-based
Settings: activin A for the first three days of culture
Experimental: Cells were continuously cultured for another 3 to 5 days in basal medium with retinoic acid at 1 μM, alone or with bFGF. RNA samples were harvested from cells at various time points along this process to help evaluate the directed differentiation of the cells. Furthermore, culture medium and factors were regularly removed and replenished throughout the differentiation protocol.

Activin A: a member of the TGFβ superfamily; growth factor (R&D Systems) used to differentiate human embryonic stem cells
Pdx1 expression compared to samples containing no activin A: maintained Pdx1 expression
